The values below come from patent publication US20160274108A1, “DIAGNOSTIC METHODS FOR PAR4 ANTAGONIST THERAPY” (BRISTOL-MYERS SQUIBB COMPANY, priority 2013, published 2016).

The target of assay [1] is T1, protease-activated receptor type 4 (PAR4) (Homo sapiens, UniProt Q96RI0).
T1 sequence (Q96RI0 18-385): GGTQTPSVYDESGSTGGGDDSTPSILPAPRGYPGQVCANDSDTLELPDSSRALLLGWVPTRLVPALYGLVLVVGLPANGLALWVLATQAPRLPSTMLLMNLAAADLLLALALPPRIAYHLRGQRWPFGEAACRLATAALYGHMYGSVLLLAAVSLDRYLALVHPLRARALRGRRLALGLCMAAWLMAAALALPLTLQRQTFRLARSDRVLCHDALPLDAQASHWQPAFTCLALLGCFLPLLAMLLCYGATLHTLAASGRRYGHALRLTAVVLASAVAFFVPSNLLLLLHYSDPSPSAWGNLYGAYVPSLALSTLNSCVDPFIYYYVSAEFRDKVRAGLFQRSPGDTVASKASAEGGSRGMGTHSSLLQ
To be noted: abstract of Lee et al., J. Med. Chem., 44(22):3746-3749 (2001); cited from earlier work.

The subject of assay [2] is platelets. Briefly: Platelet activation by whole blood flow cytometry: fibrinogen binding. The assay is classed as cell-based, human. The note with it: PAR1 1 μM final, 501 healthy subjects. How it is done: (§1) PAR1 and PAR4 agonists were supplied as freeze dried peptides and reconstituted with HEPES buffered saline [HBS, 0.14M NaCl, 5 mM KCl, 1 mM MgSO4, 10 mM HEPES (sodium salt), pH 7.4] to 1 mM concentrations prior to storing in single use aliquots at −80° C. Immediately prior to use PAR1 was thawed and diluted in HBS to 10 μM as a working concentration to give a final assay concentration of 1 μM. Similarly PAR4 was diluted to 100 μM working concentration to give a final assay concentration of 10 μM.
(§2) The antibodies used for flow cytometry were: rabbit FITC-anti-fibrinogen (Dako Ltd, Ely, UK), PE-anti-CD62P and a relevant PE-isotype control (Bristol Institute for Transfusion Science, Bristol, UK). HBS was used for all dilutions.
(§3) Blood was processed within 15 minutes of venesection, with 5 μL of citrated whole blood containing aspirin (100 μM) and hirudin (10 U/mL) being added to 45 μL of HBS containing apyrase (4 U/mL), either FITC-anti-fibrinogen or PE anti-CD62P, and either PAR1 (1 μM final concentration) or PAR4 (10 μM final concentration). […] Platelets were identified by light scatter and results were recorded as the percentage of platelets positive for the relevant activation marker. […]
Background: A flow cytometer gives signals particle by particle.

In assay [3] the test system is platelets. Briefly: Platelet activation by whole blood flow cytometry: P-selectin (CD62P) expression. It counts as cell-based, human. The note with it: PAR1 1 μM final, 501 healthy subjects. How it is done: as §1, §2, §3

For the compound `CCOC(=O)c1ccc(-c2nn(Cc3ccccc3)c3ccccc23)cc1`, the “inhibition of PAR4-dependent platelet activation” value in assay [1] was “selective and potent inhibitor”.

In the case of “PAR1: PAR1 agonist, freeze dried peptide supplied by Bristol-Myers Squibb; Example 2 control is Compound A, SFFLRR (SEQ ID NO: 39)”, the “fibrinogen binding, % positive platelets, median” value in the assay on platelets [2] came to 19.7%. Further, in the assay with platelets [3], the “P-selectin expression, % positive platelets, median” value worked out at 86.8%.
